# Patent US20050170966A1, “Surfactants and surfactant compositions” (priority 2002, published 2005)
# Columns and labels:
# Type in all cases: in vivo
# Savoy cabbage = assay: Field trial, lower glyphosate rate, varying adjuvant rate; conditions: Sav C, 14 DAT
# Description: (§1) In this Example, adjuvants of the invention (SE2), plus TAE1 as control, were tested in field trials in formulations including glyphosate (isopropylamine salt) as a herbicide on flax, pea, Savoy cabbage (Sav C) and Italian ryegrass (It R) as target crops. The application rate was 1080 g(a.e).ha^−1, with adjuvant at an application rate of 405 g.ha^−1 (75% of the normal application rate for adjuvants in such formulations of 540 g.ha^−1). The effectiveness of the formulations was by visual assessment of Growth Reduction (Gr Red) and Chlorosis/Necrosis (Chlor) 6 DAT with the values being reported in % (related to an untreated control=0% effect). Further field trial runs were carried out similar to Example AE4 on pea and Savoy cabbage as target crops at a lower application rate of glyphosate (570 g(a.e.).ha^−1) and using varying application rates for the adjuvant (135, 270 and 405 g.ha^−1) with the formulation components being mixed in the spray tank.
# pea = assay: as above; conditions: 14 DAT
# Description: as §1
# [1] = test system: Couchgrass (Agropyron repens); assay: Greenhouse trial of adjuvant with glyphosate; conditions: for % kill: 7 DAT; for % fresh wt 22 days (foliage): 22 DAT
# Text: (§2) This Example goves the results of greenhouse trials to investigate the adjuvant properties of compound SE2, with a fatty amine ethoxylate (FAE1) for comparitison, used in combination with glyphosate (isopropylamine salt?) as a herbicide against Couchgrass (Agropyron repens) and Bindweed (Convolvulus arvensis). Glyphosate doses of 180, 360 and 540 g(a.e.).ha^−1 were used against A. repens and 540, 810 and 1080 g(a.e.).ha^−1 against C. arvensis. The spray volume was 200 l.ha^−1 and ratios of glyphosate (active ingredient) to adjuvant of 2:0.75 (37.5%); 2:0.5 (25%); 2:0.25 (12.5%) and 2:0.1 (5%) (percentage figres in brackets are by weight adjuvant based on glyphosate a.e.) were tested. Weed kill was visually assessed 7, 14 and 21 days after treatment (DAT) and the % fresh weight of foliage was determined 22 and 33 DAT for A. repens and C. arvensis respectively. The % kill results at 7 DAT are set out in Table 3a and the % fresh weight of foliage determined 22 and 33 DAT is reported in Table 3b below. The % fresh weight of foliage is determined 22 and 33 DAT for A. repens and C. arvensis respectively and the results are included in Table 3b below: […]
# [2] = test system: Bindweed (Convolvulus arvensis); assay: Greenhouse trial of adjuvant with glyphosate; conditions: for % kill: 7 DAT; for % fresh wt 33 days (foliage): 33 DAT
# Text: as §2
# [3] = test system: Agropyron repens (couch grass); assay: Adjuvants for Glyphosate, test plots, visual score
# Description: (§3) In this Example the effect of compounds of the invention as adjuvants for Glyphosate as a herbicide against the species Agropyron repens (couch grass) and Abutilon theophrasti (velvetleaf) using FAE1 as a control adjuvant was tested. Test plots were treated by spraying (spray volume 200 l.ha^−1) at varying doses of glyphosate; 180 and 360 g(a.e.).ha^−1 for A. repens and 250 and 500 g(active).ha^−1 for A. theophrasti and ratios of glyphosate to adjuvant (8:1,4:1 and 2:1 by weight). The effect of the herbicide formulations was assessed by visual comparison with untreated control blocks 6, 13 and 19 days after treatment (DAT), scoring as percentages with 0=no effect and 100=complete kill. The results are set out in Table 2 below
# [4] = test system: Abutilon theophrasti (velvetleaf); assay: Adjuvants for Glyphosate, test plots, visual score
# Description: as §3
# [5] = glyphosate 570 g(a.e.).ha^-1, adjuvant 135 g/ha
# [6] = glyphosate 570 g(a.e.).ha^-1, adjuvant 270 g/ha
# [7] = glyphosate 570 g(a.e.).ha^-1, adjuvant 405 g/ha
substance,measurement,setting,value
1-[Bis-(2-hydroxyethyl)-amino]-2-hydroxypropane-3-(Alc1 15-ethoxylate) [SE2],% necrosis,Savoy cabbage; [5],40%
same,% necrosis,Savoy cabbage; [6],40%
same,% necrosis,Savoy cabbage; [7],60%
same,% necrosis,pea; [5],70%
same,% necrosis,pea; [6],90%
same,% necrosis,pea; [7],95%
same,% kill,"[1]; Gly 180, Adj 5% Gly",17.86%
same,% kill,"[1]; Gly 180, Adj 12.5% Gly",17.86%
same,% kill,"[1]; Gly 180, Adj 25% Gly",21.43%
same,% kill,"[1]; Gly 180, Adj 37.5% Gly",21.43%
same,% kill,"[1]; Gly 360, Adj 5% Gly",14.29%
same,% kill,"[1]; Gly 360, Adj 12.5% Gly",28.57%
same,% kill,"[1]; Gly 360, Adj 25% Gly",32.14%
same,% kill,"[1]; Gly 360, Adj 37.5% Gly",25%
same,% kill,"[1]; Gly 540, Adj 5% Gly",28.57%
same,% kill,"[1]; Gly 540, Adj 12.5% Gly",25%
same,% kill,"[1]; Gly 540, Adj 25% Gly",35.71%
same,% kill,"[1]; Gly 540, Adj 37.5% Gly",39.29%
same,% fresh wt 22 days (foliage),"[1]; Gly 180, 5 wt % adjuvant",95.49%
same,% fresh wt 22 days (foliage),"[1]; Gly 180, 12.5 wt % adjuvant",59.81%
same,% fresh wt 22 days (foliage),"[1]; Gly 180, 25 wt % adjuvant",48.07%
same,% fresh wt 22 days (foliage),"[1]; Gly 180, 37.5 wt % adjuvant",53.01%
same,% fresh wt 22 days (foliage),"[1]; Gly 360, 5 wt % adjuvant",63.31%
same,% fresh wt 22 days (foliage),"[1]; Gly 360, 12.5 wt % adjuvant",35.66%
same,% fresh wt 22 days (foliage),"[1]; Gly 360, 25 wt % adjuvant",29.69%
same,% fresh wt 22 days (foliage),"[1]; Gly 360, 37.5 wt % adjuvant",40.02%
same,% fresh wt 22 days (foliage),"[1]; Gly 540, 5 wt % adjuvant",23.83%
same,% fresh wt 22 days (foliage),"[1]; Gly 540, 12.5 wt % adjuvant",19.63%
same,% fresh wt 22 days (foliage),"[1]; Gly 540, 25 wt % adjuvant",19.6%
same,% fresh wt 22 days (foliage),"[1]; Gly 540, 37.5 wt % adjuvant",18.36%
same,% kill,"[2]; Gly 540, Adj 5% Gly",14.29%
same,% kill,"[2]; Gly 540, Adj 12.5% Gly",14.29%
same,% kill,"[2]; Gly 540, Adj 25% Gly",14.29%
same,% kill,"[2]; Gly 540, Adj 37.5% Gly",14.29%
same,% kill,"[2]; Gly 810, Adj 5% Gly",14.29%
same,% kill,"[2]; Gly 810, Adj 12.5% Gly",17.86%
same,% kill,"[2]; Gly 810, Adj 25% Gly",14.29%
same,% kill,"[2]; Gly 810, Adj 37.5% Gly",14.29%
same,% kill,"[2]; Gly 1080, Adj 5% Gly",14.29%
same,% kill,"[2]; Gly 1080, Adj 12.5% Gly",14.29%
same,% kill,"[2]; Gly 1080, Adj 25% Gly",14.29%
same,% kill,"[2]; Gly 1080, Adj 37.5% Gly",14.29%
same,% fresh wt 33 days (foliage),"[2]; Gly 540, 5 wt % adjuvant",54.61%
same,% fresh wt 33 days (foliage),"[2]; Gly 540, 12.5 wt % adjuvant",54.21%
same,% fresh wt 33 days (foliage),"[2]; Gly 540, 25 wt % adjuvant",54.97%
same,% fresh wt 33 days (foliage),"[2]; Gly 540, 37.5 wt % adjuvant",53.73%
same,% fresh wt 33 days (foliage),"[2]; Gly 810, 5 wt % adjuvant",53.91%
same,% fresh wt 33 days (foliage),"[2]; Gly 810, 12.5 wt % adjuvant",62.03%
same,% fresh wt 33 days (foliage),"[2]; Gly 810, 25 wt % adjuvant",52.01%
same,% fresh wt 33 days (foliage),"[2]; Gly 810, 37.5 wt % adjuvant",55.38%
same,% fresh wt 33 days (foliage),"[2]; Gly 1080, 5 wt % adjuvant",50.55%
same,% fresh wt 33 days (foliage),"[2]; Gly 1080, 12.5 wt % adjuvant",53.29%
same,% fresh wt 33 days (foliage),"[2]; Gly 1080, 25 wt % adjuvant",46.2%
same,% fresh wt 33 days (foliage),"[2]; Gly 1080, 37.5 wt % adjuvant",43.89%
same,visual herbicide effect score,"[3]; glyphosate 180 g.ha^-1, ratio 2:1, 6 DAT",17.9%
same,visual herbicide effect score,"[3]; glyphosate 180 g.ha^-1, ratio 2:1, 13 DAT",46.4%
same,visual herbicide effect score,"[3]; glyphosate 180 g.ha^-1, ratio 2:1, 19 DAT",82.1%
same,visual herbicide effect score,"[3]; glyphosate 180 g.ha^-1, ratio 4:1, 6 DAT",17.9%
same,visual herbicide effect score,"[3]; glyphosate 180 g.ha^-1, ratio 4:1, 13 DAT",39.3%
same,visual herbicide effect score,"[3]; glyphosate 180 g.ha^-1, ratio 4:1, 19 DAT",60%
same,visual herbicide effect score,"[3]; glyphosate 180 g.ha^-1, ratio 8:1, 6 DAT",25%
same,visual herbicide effect score,"[3]; glyphosate 180 g.ha^-1, ratio 8:1, 13 DAT",32.1%
same,visual herbicide effect score,"[3]; glyphosate 180 g.ha^-1, ratio 8:1, 19 DAT",50%
same,visual herbicide effect score,"[3]; glyphosate 360 g.ha^-1, ratio 2:1, 6 DAT",32.1%
same,visual herbicide effect score,"[3]; glyphosate 360 g.ha^-1, ratio 2:1, 13 DAT",60.7%
same,visual herbicide effect score,"[3]; glyphosate 360 g.ha^-1, ratio 2:1, 19 DAT",100%
same,visual herbicide effect score,"[3]; glyphosate 360 g.ha^-1, ratio 4:1, 6 DAT",25%
same,visual herbicide effect score,"[3]; glyphosate 360 g.ha^-1, ratio 4:1, 13 DAT",50%
same,visual herbicide effect score,"[3]; glyphosate 360 g.ha^-1, ratio 4:1, 19 DAT",92.9%
same,visual herbicide effect score,"[3]; glyphosate 360 g.ha^-1, ratio 8:1, 6 DAT",25%
same,visual herbicide effect score,"[3]; glyphosate 360 g.ha^-1, ratio 8:1, 13 DAT",46.4%
same,visual herbicide effect score,"[3]; glyphosate 360 g.ha^-1, ratio 8:1, 19 DAT",78.6%
same,visual herbicide effect score,"[4]; glyphosate 250 g.ha^-1, ratio 2:1, 6 DAT",25%
same,visual herbicide effect score,"[4]; glyphosate 250 g.ha^-1, ratio 2:1, 13 DAT",32.1%
same,visual herbicide effect score,"[4]; glyphosate 250 g.ha^-1, ratio 2:1, 19 DAT",42.9%
same,visual herbicide effect score,"[4]; glyphosate 250 g.ha^-1, ratio 4:1, 6 DAT",17.9%
same,visual herbicide effect score,"[4]; glyphosate 250 g.ha^-1, ratio 4:1, 13 DAT",28.6%
same,visual herbicide effect score,"[4]; glyphosate 250 g.ha^-1, ratio 4:1, 19 DAT",35.7%
same,visual herbicide effect score,"[4]; glyphosate 250 g.ha^-1, ratio 8:1, 6 DAT",21.4%
same,visual herbicide effect score,"[4]; glyphosate 250 g.ha^-1, ratio 8:1, 13 DAT",28.6%
same,visual herbicide effect score,"[4]; glyphosate 250 g.ha^-1, ratio 8:1, 19 DAT",42.9%
same,visual herbicide effect score,"[4]; glyphosate 500 g.ha^-1, ratio 2:1, 6 DAT",28.6%
same,visual herbicide effect score,"[4]; glyphosate 500 g.ha^-1, ratio 4:1, 6 DAT",28.6%
same,visual herbicide effect score,"[4]; glyphosate 500 g.ha^-1, ratio 8:1, 6 DAT",25%
same,visual herbicide effect score,"[4]; glyphosate 500 g.ha^-1, ratio 8:1, 13 DAT",50%
same,visual herbicide effect score,"[4]; glyphosate 500 g.ha^-1, ratio 8:1, 19 DAT",53.6%
